The values that follow come from PubChem BioAssay AID463100 (The Scripps Research Institute Molecular Screening Center, 2010).

The subject of this assay is VIM-2-transformed E. coli growth with imipenem, MIC. Briefly: MIC of VIM-2 E. coli under carbapenem – VIM-2-transformed E. coli, imipenem co-treatment, counter-screen for IMP-1 and VIM-2 inhibitor project, late-stage follow-up (AID 463100).
In the case of `CC(=O)Nc1cc[c]([Hg+])cc1`, the minimal inhibitory concentration (MIC) is 2500 nM. In the case of `O=C(O)c1ccc[c]([Hg+])c1` it was 2080 nM; in that of `Cc1cc[c]([Hg+])cc1`, 651 nM. In the case of `COc1cccc[c]1[Hg+]`, the minimum inhibitory concentration (MIC) was 781 nM.

For `[Hg+][c]1ccccc1`, the MIC was 625 nM. For `O=C(O)c1cc[c]([Hg][Cl])cc1`, the MIC was 9370 nM.
